Laboratory results published in ChEMBL document CHEMBL3991601, “The target landscape of clinical kinase drugs” (Science, 2017).
Activity calls are given as the source filed them. Rule as the data show it, for most assays here: actives have a measured Kd and inactives only a lower limit.

Legend:
[1] = biological target: T1, Peroxisomal acyl-coenzyme A oxidase 3 (Homo sapiens, UniProt O15254)
T1 sequence (O15254 whole entry): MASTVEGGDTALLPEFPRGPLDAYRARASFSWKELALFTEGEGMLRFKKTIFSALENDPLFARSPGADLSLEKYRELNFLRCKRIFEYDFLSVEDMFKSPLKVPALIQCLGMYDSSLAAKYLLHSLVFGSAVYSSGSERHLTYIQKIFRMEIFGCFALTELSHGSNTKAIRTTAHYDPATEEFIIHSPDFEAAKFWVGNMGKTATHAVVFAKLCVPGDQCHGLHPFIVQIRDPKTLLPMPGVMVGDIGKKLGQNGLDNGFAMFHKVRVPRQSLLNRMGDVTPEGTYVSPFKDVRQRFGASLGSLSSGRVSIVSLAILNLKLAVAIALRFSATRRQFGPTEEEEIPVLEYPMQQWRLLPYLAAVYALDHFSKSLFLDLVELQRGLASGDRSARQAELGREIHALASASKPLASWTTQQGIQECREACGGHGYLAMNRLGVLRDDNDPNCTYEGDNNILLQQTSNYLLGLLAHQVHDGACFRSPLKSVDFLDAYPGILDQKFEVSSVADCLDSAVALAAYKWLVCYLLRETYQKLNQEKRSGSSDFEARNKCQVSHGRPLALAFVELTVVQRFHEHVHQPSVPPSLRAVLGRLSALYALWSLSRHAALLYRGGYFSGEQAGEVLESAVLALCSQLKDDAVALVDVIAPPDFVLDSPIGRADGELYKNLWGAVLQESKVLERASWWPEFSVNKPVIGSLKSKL

[2] = biological target: Cyclin-dependent kinase 12 (Homo sapiens, UniProt Q9NYV4)
[3] = biological target: Chromodomain-helicase-DNA-binding protein 4 (Homo sapiens, UniProt Q14839)
Chromodomain-helicase-DNA-binding protein 4, sequence (Q14839 whole entry): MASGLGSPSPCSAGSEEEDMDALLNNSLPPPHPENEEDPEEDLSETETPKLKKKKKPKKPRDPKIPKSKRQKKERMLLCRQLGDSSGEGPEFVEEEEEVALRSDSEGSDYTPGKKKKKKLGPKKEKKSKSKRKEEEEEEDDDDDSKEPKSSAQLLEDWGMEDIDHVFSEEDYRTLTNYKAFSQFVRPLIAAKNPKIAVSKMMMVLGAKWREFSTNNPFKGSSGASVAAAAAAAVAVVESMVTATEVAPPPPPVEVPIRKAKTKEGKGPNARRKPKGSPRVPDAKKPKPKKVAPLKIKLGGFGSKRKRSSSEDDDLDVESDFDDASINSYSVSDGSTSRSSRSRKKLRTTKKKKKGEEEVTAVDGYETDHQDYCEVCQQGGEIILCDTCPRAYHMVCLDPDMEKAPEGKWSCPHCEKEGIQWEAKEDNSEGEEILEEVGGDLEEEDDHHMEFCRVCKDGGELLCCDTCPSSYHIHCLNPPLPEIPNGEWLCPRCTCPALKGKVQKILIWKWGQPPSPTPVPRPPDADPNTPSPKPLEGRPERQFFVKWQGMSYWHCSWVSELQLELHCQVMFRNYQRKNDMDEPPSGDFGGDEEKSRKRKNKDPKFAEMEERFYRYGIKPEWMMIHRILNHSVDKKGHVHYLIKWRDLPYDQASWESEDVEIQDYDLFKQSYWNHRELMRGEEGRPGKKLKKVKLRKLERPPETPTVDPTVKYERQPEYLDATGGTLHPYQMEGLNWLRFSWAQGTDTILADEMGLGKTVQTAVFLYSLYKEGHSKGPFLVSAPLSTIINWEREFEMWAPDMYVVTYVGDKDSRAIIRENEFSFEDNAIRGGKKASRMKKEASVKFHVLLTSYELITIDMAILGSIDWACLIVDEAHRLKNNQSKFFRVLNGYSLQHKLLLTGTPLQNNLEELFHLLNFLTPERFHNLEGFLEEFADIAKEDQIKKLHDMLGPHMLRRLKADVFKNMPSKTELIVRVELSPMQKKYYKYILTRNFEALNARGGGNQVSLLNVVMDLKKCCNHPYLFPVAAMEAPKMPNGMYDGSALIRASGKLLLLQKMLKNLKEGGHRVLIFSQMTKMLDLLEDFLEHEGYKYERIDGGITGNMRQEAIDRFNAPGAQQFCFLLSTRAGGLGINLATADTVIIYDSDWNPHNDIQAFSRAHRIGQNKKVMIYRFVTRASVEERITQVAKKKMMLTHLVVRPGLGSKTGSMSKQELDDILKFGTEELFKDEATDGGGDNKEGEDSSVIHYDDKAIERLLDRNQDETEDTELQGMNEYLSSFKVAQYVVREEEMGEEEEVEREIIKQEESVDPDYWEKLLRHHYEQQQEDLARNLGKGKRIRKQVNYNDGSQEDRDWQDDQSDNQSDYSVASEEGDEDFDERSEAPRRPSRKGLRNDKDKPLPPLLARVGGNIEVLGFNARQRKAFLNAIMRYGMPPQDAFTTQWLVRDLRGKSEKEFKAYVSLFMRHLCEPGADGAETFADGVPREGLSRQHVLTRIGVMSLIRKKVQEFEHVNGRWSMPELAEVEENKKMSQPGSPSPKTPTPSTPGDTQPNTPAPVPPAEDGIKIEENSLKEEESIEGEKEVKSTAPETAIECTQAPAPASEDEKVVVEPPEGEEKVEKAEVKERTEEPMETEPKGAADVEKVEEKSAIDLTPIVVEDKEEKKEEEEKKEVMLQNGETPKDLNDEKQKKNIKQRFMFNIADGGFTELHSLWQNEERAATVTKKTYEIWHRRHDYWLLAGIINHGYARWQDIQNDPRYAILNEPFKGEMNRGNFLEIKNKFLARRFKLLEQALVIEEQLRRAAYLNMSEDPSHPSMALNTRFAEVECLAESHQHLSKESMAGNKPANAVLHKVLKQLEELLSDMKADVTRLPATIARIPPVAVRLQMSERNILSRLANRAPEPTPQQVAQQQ

[4] = biological target: Ephrin type-A receptor 2 (Homo sapiens, UniProt P29317)
[5] = biological target: Fibroblast growth factor receptor 1 (Homo sapiens, UniProt P11362)
Fibroblast growth factor receptor 1, sequence (P11362 whole entry): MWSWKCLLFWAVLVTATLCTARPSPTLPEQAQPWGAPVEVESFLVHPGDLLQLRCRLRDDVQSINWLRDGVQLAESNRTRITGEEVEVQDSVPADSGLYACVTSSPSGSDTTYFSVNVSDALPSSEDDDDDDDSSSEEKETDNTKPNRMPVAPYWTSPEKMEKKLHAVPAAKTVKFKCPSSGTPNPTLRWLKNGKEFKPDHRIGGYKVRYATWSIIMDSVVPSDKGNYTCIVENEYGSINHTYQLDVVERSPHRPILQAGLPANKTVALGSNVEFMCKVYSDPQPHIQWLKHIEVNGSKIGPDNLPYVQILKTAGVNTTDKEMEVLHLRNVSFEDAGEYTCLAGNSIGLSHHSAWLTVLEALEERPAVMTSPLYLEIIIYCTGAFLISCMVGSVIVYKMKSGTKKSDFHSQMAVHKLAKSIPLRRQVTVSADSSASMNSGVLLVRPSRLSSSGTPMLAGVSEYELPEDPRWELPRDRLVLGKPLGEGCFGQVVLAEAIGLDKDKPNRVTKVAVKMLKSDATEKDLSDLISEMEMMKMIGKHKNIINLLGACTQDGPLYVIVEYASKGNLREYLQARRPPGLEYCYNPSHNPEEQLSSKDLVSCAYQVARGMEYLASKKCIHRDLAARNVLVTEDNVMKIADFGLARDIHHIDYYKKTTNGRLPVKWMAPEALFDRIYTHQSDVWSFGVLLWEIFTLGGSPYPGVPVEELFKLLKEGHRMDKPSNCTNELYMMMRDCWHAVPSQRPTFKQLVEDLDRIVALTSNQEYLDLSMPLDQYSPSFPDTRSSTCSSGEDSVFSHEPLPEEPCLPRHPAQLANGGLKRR

[6] = biological target: Tyrosine-protein kinase FRK (Homo sapiens, UniProt P42685)
Tyrosine-protein kinase FRK, sequence (P42685 whole entry, the tested form may be a part): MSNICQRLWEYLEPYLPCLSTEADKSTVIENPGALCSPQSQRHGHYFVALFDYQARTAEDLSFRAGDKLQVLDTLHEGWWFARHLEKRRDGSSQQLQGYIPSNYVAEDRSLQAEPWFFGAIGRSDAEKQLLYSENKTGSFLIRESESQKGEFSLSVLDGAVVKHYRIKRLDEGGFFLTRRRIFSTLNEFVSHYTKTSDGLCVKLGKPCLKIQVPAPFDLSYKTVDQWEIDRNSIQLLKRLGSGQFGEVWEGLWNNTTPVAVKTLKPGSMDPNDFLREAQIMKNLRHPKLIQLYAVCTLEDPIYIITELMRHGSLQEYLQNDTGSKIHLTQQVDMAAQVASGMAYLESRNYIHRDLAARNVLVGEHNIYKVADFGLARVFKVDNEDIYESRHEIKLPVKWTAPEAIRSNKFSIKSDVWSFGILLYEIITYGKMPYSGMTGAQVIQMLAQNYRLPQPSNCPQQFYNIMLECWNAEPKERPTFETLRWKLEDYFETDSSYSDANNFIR

[7] = biological target: LIM domain kinase 2 (Homo sapiens, UniProt P53671)
LIM domain kinase 2, sequence (P53671 whole entry, the tested form may be a part): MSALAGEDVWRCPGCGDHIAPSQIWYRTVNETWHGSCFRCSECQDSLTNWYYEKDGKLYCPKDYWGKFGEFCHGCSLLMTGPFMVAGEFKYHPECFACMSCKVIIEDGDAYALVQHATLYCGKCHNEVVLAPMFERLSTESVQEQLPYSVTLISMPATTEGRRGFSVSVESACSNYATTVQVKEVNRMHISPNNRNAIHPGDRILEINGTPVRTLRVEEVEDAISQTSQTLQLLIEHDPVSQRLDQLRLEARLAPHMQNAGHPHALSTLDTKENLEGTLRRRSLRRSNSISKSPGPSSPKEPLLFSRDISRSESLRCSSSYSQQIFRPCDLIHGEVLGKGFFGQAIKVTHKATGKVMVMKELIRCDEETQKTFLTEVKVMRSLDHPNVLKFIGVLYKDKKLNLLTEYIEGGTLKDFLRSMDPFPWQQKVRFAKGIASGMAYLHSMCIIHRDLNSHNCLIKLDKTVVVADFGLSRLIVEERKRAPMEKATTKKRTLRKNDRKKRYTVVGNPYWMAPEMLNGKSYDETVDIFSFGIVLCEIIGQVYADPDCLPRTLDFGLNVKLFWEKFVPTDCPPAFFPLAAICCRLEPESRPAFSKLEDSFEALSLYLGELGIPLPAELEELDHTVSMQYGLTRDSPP

[8] = biological target: Mitogen-activated protein kinase kinase kinase kinase 1 (Homo sapiens, UniProt Q92918)
Mitogen-activated protein kinase kinase kinase kinase 1, sequence (Q92918 whole entry): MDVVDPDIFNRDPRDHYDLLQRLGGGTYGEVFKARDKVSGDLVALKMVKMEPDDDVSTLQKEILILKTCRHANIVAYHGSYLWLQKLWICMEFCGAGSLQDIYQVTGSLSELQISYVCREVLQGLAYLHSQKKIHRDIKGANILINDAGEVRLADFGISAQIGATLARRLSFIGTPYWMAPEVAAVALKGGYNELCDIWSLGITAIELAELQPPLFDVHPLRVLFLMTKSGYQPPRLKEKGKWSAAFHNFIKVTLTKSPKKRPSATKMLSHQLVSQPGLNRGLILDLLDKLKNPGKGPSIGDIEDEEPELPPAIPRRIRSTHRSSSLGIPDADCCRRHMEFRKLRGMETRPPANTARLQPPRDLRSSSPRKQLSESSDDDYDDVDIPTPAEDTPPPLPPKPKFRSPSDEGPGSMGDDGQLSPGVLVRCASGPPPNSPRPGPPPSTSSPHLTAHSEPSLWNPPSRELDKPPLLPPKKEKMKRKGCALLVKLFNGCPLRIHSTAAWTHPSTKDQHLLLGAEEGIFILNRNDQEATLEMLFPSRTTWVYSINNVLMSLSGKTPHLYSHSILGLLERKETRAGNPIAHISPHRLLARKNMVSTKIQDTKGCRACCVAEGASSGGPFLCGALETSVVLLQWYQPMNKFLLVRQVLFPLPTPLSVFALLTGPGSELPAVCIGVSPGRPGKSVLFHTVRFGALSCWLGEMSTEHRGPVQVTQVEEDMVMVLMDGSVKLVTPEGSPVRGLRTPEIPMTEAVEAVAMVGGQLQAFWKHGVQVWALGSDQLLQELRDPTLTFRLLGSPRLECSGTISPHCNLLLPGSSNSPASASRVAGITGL

[9] = biological target: Midasin (Homo sapiens, UniProt Q9NU22)
[10] = biological target: T2, Membrane-associated tyrosine- and threonine-specific cdc2-inhibitory kinase (Homo sapiens, UniProt Q99640)
T2 sequence (Q99640 whole entry): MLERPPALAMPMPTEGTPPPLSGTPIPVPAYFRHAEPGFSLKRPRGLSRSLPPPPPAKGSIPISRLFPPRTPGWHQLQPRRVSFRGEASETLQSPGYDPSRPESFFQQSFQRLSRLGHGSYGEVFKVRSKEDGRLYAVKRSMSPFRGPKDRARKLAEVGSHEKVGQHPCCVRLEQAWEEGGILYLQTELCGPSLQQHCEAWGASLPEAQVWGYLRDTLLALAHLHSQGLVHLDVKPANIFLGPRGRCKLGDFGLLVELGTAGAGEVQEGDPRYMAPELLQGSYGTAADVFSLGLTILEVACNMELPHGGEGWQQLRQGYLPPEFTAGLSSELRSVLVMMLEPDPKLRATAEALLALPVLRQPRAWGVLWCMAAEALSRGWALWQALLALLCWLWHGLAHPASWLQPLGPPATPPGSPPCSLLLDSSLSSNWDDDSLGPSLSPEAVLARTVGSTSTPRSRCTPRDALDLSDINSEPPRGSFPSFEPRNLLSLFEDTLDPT

[11] = biological target: T3, Glycogen phosphorylase, brain form (Homo sapiens, UniProt P11216)
T3 sequence (P11216 whole entry): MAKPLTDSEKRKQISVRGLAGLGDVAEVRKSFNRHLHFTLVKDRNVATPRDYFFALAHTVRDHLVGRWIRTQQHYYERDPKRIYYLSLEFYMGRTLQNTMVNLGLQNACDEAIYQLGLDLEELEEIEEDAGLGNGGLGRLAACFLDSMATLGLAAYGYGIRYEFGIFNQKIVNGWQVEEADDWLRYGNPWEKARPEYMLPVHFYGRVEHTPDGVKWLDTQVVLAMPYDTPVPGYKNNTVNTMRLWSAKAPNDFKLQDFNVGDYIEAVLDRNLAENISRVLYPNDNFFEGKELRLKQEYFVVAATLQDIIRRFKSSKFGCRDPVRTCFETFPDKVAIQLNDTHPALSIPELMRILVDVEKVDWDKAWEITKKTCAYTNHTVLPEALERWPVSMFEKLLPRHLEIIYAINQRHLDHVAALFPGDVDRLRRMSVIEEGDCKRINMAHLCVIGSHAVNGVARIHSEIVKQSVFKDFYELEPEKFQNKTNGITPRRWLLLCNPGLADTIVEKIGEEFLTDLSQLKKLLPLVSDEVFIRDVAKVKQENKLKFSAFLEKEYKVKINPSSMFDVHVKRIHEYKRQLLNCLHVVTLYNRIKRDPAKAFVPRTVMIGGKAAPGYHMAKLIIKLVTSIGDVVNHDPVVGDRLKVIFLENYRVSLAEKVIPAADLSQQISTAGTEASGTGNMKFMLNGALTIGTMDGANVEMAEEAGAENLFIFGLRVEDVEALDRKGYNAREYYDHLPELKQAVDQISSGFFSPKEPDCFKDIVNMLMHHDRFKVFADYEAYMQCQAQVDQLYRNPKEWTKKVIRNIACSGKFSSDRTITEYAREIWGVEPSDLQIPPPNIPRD

[12] = biological target: Serine/threonine-protein kinase 26 (Homo sapiens, UniProt Q9P289)
[13] = biological target: Non-receptor tyrosine-protein kinase TYK2 (Homo sapiens, UniProt P29597)
Also: in the data inactive means no Kd found up to 30 µM.

| Kd [1] | Kd [2] | Kd [3] | Kd [4] | Kd [5] | Kd [6] | Kd [7] | Kd [8] | Kd [9] | Kd [10] | Kd [11] | Kd [12] | Kd [13] | Structure (SMILES) |
| --- | --- | --- | --- | --- | --- | --- | --- | --- | --- | --- | --- | --- | --- |
| > 30 µM (inactive) | > 30 µM (inactive) | > 30 µM (inactive) | > 30 µM (inactive) | > 30 µM (inactive) | > 30 µM (inactive) | > 30 µM (inactive) | > 30 µM (inactive) | > 30 µM (inactive) | > 30 µM (inactive) | > 30 µM (inactive) | > 30 µM (inactive) | > 30 µM (inactive) | COc1ccc2c(OCc3nnc4ccc(-c5ccccc5)nn34)ccnc2c1 [AMG-208] |
| > 30 µM (inactive) | > 30 µM (inactive) | > 30 µM (inactive) | > 30 µM (inactive) | > 30 µM (inactive) | > 30 µM (inactive) | > 30 µM (inactive) | > 30 µM (inactive) | > 30 µM (inactive) | > 30 µM (inactive) | > 30 µM (inactive) | > 30 µM (inactive) | > 30 µM (inactive) | S=C(NCc1ccc2c(c1)OCO2)N1CCN(c2ncnc3c2oc2ccccc23)CC1 [AMUVATINIB] |
| > 30 µM (inactive) | > 30 µM (inactive) | > 30 µM (inactive) | > 30 µM (inactive) | 0.777 µM (active) | > 30 µM (inactive) | > 30 µM (inactive) | > 30 µM (inactive) | > 30 µM (inactive) | > 30 µM (inactive) | > 30 µM (inactive) | > 30 µM (inactive) | > 30 µM (inactive) | Cc1cc(Nc2nc(N[C@@H](C)c3ncc(F)cn3)ncc2Cl)n[nH]1 [AZD-1480] |
| > 30 µM (inactive) | > 30 µM (inactive) | > 30 µM (inactive) | > 30 µM (inactive) | > 30 µM (inactive) | > 30 µM (inactive) | > 30 µM (inactive) | > 30 µM (inactive) | > 30 µM (inactive) | > 30 µM (inactive) | > 30 µM (inactive) | > 30 µM (inactive) | > 30 µM (inactive) | COc1ccc(-c2ccc3ncc4c(c3c2)n(-c2ccc(N3CCNCC3)c(C(F)(F)F)c2)c(=O)n4C)cn1 [BGT-226 FREE BASE] |
| > 30 µM (inactive) | > 30 µM (inactive) | > 30 µM (inactive) | > 30 µM (inactive) | > 30 µM (inactive) | 0.795 µM (active) | > 30 µM (inactive) | > 30 µM (inactive) | > 30 µM (inactive) | 1.85 µM (active) | > 30 µM (inactive) | > 30 µM (inactive) | > 30 µM (inactive) | COc1cccc(Nc2ncnn3ccc(CN4CC[C@@H](N)[C@H](O)C4)c23)c1 [BMS-690514] |
| > 30 µM (inactive) | > 30 µM (inactive) | > 30 µM (inactive) | 0.746 µM (active) | > 30 µM (inactive) | 0.56 µM (active) | > 30 µM (inactive) | > 30 µM (inactive) | > 30 µM (inactive) | > 30 µM (inactive) | > 30 µM (inactive) | > 30 µM (inactive) | > 30 µM (inactive) | COc1cc2nccc(Oc3ccc(NC(=O)C4(C(=O)Nc5ccc(F)cc5)CC4)cc3)c2cc1OC [CABOZANTINIB] |
| > 30 µM (inactive) | > 30 µM (inactive) | > 30 µM (inactive) | > 30 µM (inactive) | > 30 µM (inactive) | > 30 µM (inactive) | > 30 µM (inactive) | > 30 µM (inactive) | > 30 µM (inactive) | > 30 µM (inactive) | > 30 µM (inactive) | > 30 µM (inactive) | > 30 µM (inactive) | c1cc(OCCN2CCCCC2)cc(-c2n[nH]c3ccc(-c4nc[nH]n4)cc23)c1 [CC-401] |
| > 30 µM (inactive) | > 30 µM (inactive) | > 30 µM (inactive) | > 30 µM (inactive) | > 30 µM (inactive) | > 30 µM (inactive) | > 30 µM (inactive) | > 30 µM (inactive) | > 30 µM (inactive) | > 30 µM (inactive) | > 30 µM (inactive) | > 30 µM (inactive) | > 30 µM (inactive) | COc1cc2ncnc(Nc3ccc(F)c(Cl)c3)c2cc1NC(=O)/C=C/CN1CCCCC1 [DACOMITINIB ANHYDROUS] |
| > 30 µM (inactive) | > 30 µM (inactive) | > 30 µM (inactive) | > 30 µM (inactive) | > 30 µM (inactive) | > 30 µM (inactive) | > 30 µM (inactive) | > 30 µM (inactive) | > 30 µM (inactive) | > 30 µM (inactive) | > 30 µM (inactive) | > 30 µM (inactive) | > 30 µM (inactive) | COc1cc(Nc2ncc(F)c(Nc3ccc4c(n3)N(COP(=O)(O)O)C(=O)C(C)(C)O4)n2)cc(OC)c1OC [FOSTAMATINIB] |

| Structure (SMILES) | Kd [1] | Kd [2] | Kd [3] | Kd [4] | Kd [5] | Kd [6] | Kd [7] | Kd [8] | Kd [9] | Kd [10] | Kd [11] | Kd [12] | Kd [13] |
| --- | --- | --- | --- | --- | --- | --- | --- | --- | --- | --- | --- | --- | --- |
| NC[C@@](O)(c1ccc(Cl)cc1)c1ccc(-c2cn[nH]c2)cc1 [AT-13148] | > 30 µM (inactive) | > 30 µM (inactive) | > 30 µM (inactive) | > 30 µM (inactive) | > 30 µM (inactive) | > 30 µM (inactive) | > 30 µM (inactive) | > 30 µM (inactive) | > 30 µM (inactive) | > 30 µM (inactive) | > 30 µM (inactive) | > 30 µM (inactive) | > 30 µM (inactive) |
| CNC(=O)c1ccc(Nc2ncc(C(F)(F)F)c(NCc3nccnc3N(C)S(C)(=O)=O)n2)cc1 [DEFACTINIB] | > 30 µM (inactive) | 0.73 µM (active) | > 30 µM (inactive) | > 30 µM (inactive) | > 30 µM (inactive) | > 30 µM (inactive) | > 30 µM (inactive) | 3.13 µM (active) | > 30 µM (inactive) | > 30 µM (inactive) | > 30 µM (inactive) | > 30 µM (inactive) | > 30 µM (inactive) |
| Cc1c(Cn2c(C)nc3c(C(=O)O)cc(N4CCOCC4)cc32)cccc1C(F)(F)F [GSK-2636771] | > 30 µM (inactive) | > 30 µM (inactive) | > 30 µM (inactive) | > 30 µM (inactive) | > 30 µM (inactive) | > 30 µM (inactive) | > 30 µM (inactive) | > 30 µM (inactive) | > 30 µM (inactive) | > 30 µM (inactive) | > 30 µM (inactive) | > 30 µM (inactive) | > 30 µM (inactive) |
